Test results taken from patent US10610524B2, “Cellular hydration compositions” (Eastpond Laboratories Limited, priority 2010, dated 2020).

Columns and labels:
C. elegans nematodes = assay: Lifespan of C. elegans in hydration modified water media; assay type: in vivo; conditions: for Animals alive: USA I water; for effect on C. elegans survival: added to culture media, result in words
Description: C. elegans nematodes were grown in petri-type dishes containing normal nutrient liquid media prepared alternatively with USA I water (described in Example 2) lacking any further additive component (control) or the same water supplemented with a parent α-, β-, or γ-cyclodextrin, and/or a bioactive agent, as an active component of cellular hydration. Fifty±3 worms were transferred to each dish. Each condition was repeated in triplicate. Experiments were repeated for USA II and BP I waters described in Example 2. A. Addition of parent α-, β- and γ-cyclodextrins. B. Addition of L-arginine and nicotinamide. C. Addition of inclusion complexes of cyclodextrins with L-arginine and nicotinamide.

[1] = NIR spectroscopy of water bonding with cyclodextrin additives; assay type: physicochemical
Description: Hydration bond energies in pure waters and solutions of the same waters containing cyclodextrin compounds were assayed using IR spectroscopy in the near and middle infrared ranges. To record linear signals throughout an entire wavelength range, attenuation from water absorbance was minimized with a short optical length cuvette.
NIR range spectra were registered on a FOSS NIR Systems, Inc. 6500 spectrometer and Sample Transport Module (STM) using a 1 mm-es cuvette. […]
Three samples of water were used in the present study. A first water sample (USA I) was obtained from the U.S. and was purified by reverse osmosis, carbon filtration, ultraviolet light exposure, membrane filtration to 0.2 micron absolute, and ozonation. A second water sample (USA II) was also obtained from the U.S. A third water sample (BP I) was obtained from Budapest, Hungary.
The following cyclodextrins were added to the above described water samples at a concentration range of 0.1%-5% w/v: • α-cyclodextrin (αCD also denoted as ACD), Lot. No. CYL-2322. • β-cyclodextrin (βCD also denoted as BCD). Lot. No. CYL-2518/2. • γ-cyclodextrin (γCD also denoted as GCD), Lot. No. CYL-2323. • 2-hydroxypropyl-β-cyclodextrin (HPβCD, HPBCD), DS*=3.5, Lot. No. CYL-2232. • 2-hydroxypropyl-γ-cyclodextrin (HPCD, HPGCD), DS*=4.8, Lot. No. CYL-2258. • carboxymethyl-β-cyclodextrin (CMBCD), Lot. No. CYL-2576. • quaternary-ammonium-β-cyclodextrin (QABCD).

[2] = test system: Wheat seeds (Triticum aestivum); assay: Wheat seed germination kinetics in additive-modified water; assay type: in vivo; conditions: additive 0.5% w/v in USA I water
Description: Wheat seeds (Triticum aestivum) were germinated using USA I, USA II, and BP I waters described for Example 2. Germination rate using un-supplemented (control) water was compared to that with the same water variously supplemented with a cyclodextrin component, and/or a bioactive agent, as an active component of cellular hydration. For each condition, ten seeds were placed in continuous water contact in a Petri-type dish kept at 25 C in 12 hr light/dark cycles. Photometric images were recorded on days 1 to 6 after seeding. The percentage of seeds germinated was calculated and compared as a function of time and of the applied additive concentrations.
Water samples for seed germination were used alone with no additive, or containing cyclodextrins, or containing clathrate inclusion complexes of cyclodextrin with L-arginine or with nicotinamide (both obtained from Sigma Chemical Co.; St. Louis, Mo.), or with L-carnitine (from Lonza AG; Switzerland). […] Additive solutions were prepared fresh on the day of germination start.
Parent cyclodextrins α-cyclodextrin (ACD), β-cyclodextrin (BCD), and γ-cyclodextrin (GCD), were obtained from Wacker Chemie (Munich, Germany). The following derivatized cyclodextrins were obtained from Cyclolab Ltd. (Budapest, Hungary): hydroxypropylated-beta-cyclodextrin (DS˜3)(HPBCD), carboxymethylated-β-cyclodextrin (DS˜3.5)(CMBCD), 2-hydroxy-3-N,N,N-trimethylamino)propyl-β-cyclodextrin chloride (DS˜3.6)(QABCD).
Germination kinetics in control and additive-modified water under identical conditions were quantified as the percentage of the seeds having a sprout. Each determination consisted of 100 seeds for each parameter. Results are reported in Table 1, below, and in FIGS. 11-13.

[3] = life span 10 days, derivatized cyclodextrin 0.1% w/v in media, Table 4
[4] = life span 15 days, derivatized cyclodextrin 0.1% w/v in media, Table 4
[5] = life span 18 days, derivatized cyclodextrin 0.1% w/v in media, Table 4
[6] = wavelength region 900-1200 nm, FIG. 7
[7] = life span 10 days, parent cyclodextrin 0.1% w/v in media, Table 3
[8] = life span 15 days, parent cyclodextrin 0.1% w/v in media, Table 3
[9] = life span 18 days, parent cyclodextrin 0.1% w/v in media, Table 3

Molecule	Animals alive (C. elegans nematodes; [3])	Animals alive (C. elegans nematodes; [4])	Animals alive (C. elegans nematodes; [5])	water-bond interactions, second-derivative NIR spectra ([1]; 1200-1500 nm, FIG. 8)	water-bond interactions, second-derivative NIR spectra ([1]; 1620-1710 nm, FIG. 9)	water-bond interactions, second-derivative NIR spectra ([1]; 2170-2370 nm, FIG. 10)	water-bond interactions, second-derivative NIR spectra [1, 6]	Animals alive (C. elegans nematodes; [7])	Animals alive (C. elegans nematodes; [8])	Animals alive (C. elegans nematodes; [9])	also measured
2-hydroxy-3-N,N,N-trimethylamino)propyl-β-cyclodextrin chloride [Quaternaryammonium-β-Cyclodextrin]	98 % of initial	13 % of initial	2 % of initial	significantly modified	significantly modified	further significantly modified	significantly modified				modified micro-structure of hydrogen bonds in bulk water (spectral changes), ranking of effect ([1]; among cyclodextrin-treated water samples, FIGS. 9 and 10): largest
CC(O)COC[C@H]1O[C@@H]2O[C@H]3[C@H](O)[C@@H](O)[C@@H](O[C@H]4[C@H](O)[C@@H](O)[C@@H](O[C@H]5[C@H](O)[C@@H](O)[C@@H](O[C@H]6[C@H](O)[C@@H](O)[C@@H](O[C@H]7[C@H](O)[C@@H](O)[C@@H](O[C@H]8[C@H](O)[C@@H](O)[C@@H](O[C@H]1[C@H](O)[C@H]2O)O[C@@H]8COCC(C)O)O[C@@H]7COCC(C)O)O[C@@H]6COCC(C)O)O[C@@H]5COCC(C)O)O[C@@H]4COCC(C)O)O[C@@H]3COCC(C)O (stereo partly drawn) [HP-β-Cyclodextrin, 2-hydroxypropyl-β-cyclodextrin]	96 % of initial	17 % of initial	0 % of initial	significantly modified	significantly modified	significantly modified	further significantly modified				
N=C(N)NCCC[C@H](N)C(=O)O [L-Arg, L-arginine, reference compound]											wheat seed germination rate ([2]; day 0, Table 1): 0 percentage of total seeds; wheat seed germination rate ([2]; day 1, Table 1): 0 percentage of total seeds; wheat seed germination rate ([2]; day 2, Table 1): 30 percentage of total seeds; wheat seed germination rate ([2]; day 3, Table 1): 45 percentage of total seeds; wheat seed germination rate ([2]; day 4, Table 1): 60 percentage of total seeds; effect on C. elegans survival (C. elegans nematodes): little effect
NC(=O)c1cccnc1 [nicotinamide, reference compound]											wheat seed germination rate ([2]; day 0, Table 2): 0 percentage of the seeds; wheat seed germination rate ([2]; day 1, Table 2): 0 percentage of the seeds; wheat seed germination rate ([2]; day 2, Table 2): 4 percentage of the seeds; wheat seed germination rate ([2]; day 3, Table 2): 10 percentage of the seeds; wheat seed germination rate ([2]; day 4, Table 2): 60 percentage of the seeds; effect on C. elegans survival (C. elegans nematodes): little effect
OC[C@H]1O[C@@H]2O[C@H]3[C@H](O)[C@@H](O)[C@@H](O[C@H]4[C@H](O)[C@@H](O)[C@@H](O[C@H]5[C@H](O)[C@@H](O)[C@@H](O[C@H]6[C@H](O)[C@@H](O)[C@@H](O[C@H]7[C@H](O)[C@@H](O)[C@@H](O[C@H]1[C@H](O)[C@H]2O)O[C@@H]7CO)O[C@@H]6CO)O[C@@H]5CO)O[C@@H]4CO)O[C@@H]3CO [α-Cyclodextrin, α-cyclodextrin]								100 % of initial	20 % of initial	2 % of initial	wheat seed germination rate ([2]; day 0, Table 1): 0 percentage of total seeds; wheat seed germination rate ([2]; day 0, Table 2): 0 percentage of the seeds; wheat seed germination rate ([2]; day 1, Table 1): 0 percentage of total seeds; wheat seed germination rate ([2]; day 1, Table 2): 11 percentage of the seeds; wheat seed germination rate ([2]; day 2, Table 1): 48 percentage of total seeds; wheat seed germination rate ([2]; day 2, Table 2): 18 percentage of the seeds; wheat seed germination rate ([2]; day 3, Table 1): 70 percentage of total seeds; wheat seed germination rate ([2]; day 3, Table 2): 68 percentage of the seeds; wheat seed germination rate ([2]; day 4, Table 1): 85 percentage of total seeds; wheat seed germination rate ([2]; day 4, Table 2): 92 percentage of the seeds
OC[C@H]1O[C@@H]2O[C@H]3[C@H](O)[C@@H](O)[C@@H](O[C@H]4[C@H](O)[C@@H](O)[C@@H](O[C@H]5[C@H](O)[C@@H](O)[C@@H](O[C@H]6[C@H](O)[C@@H](O)[C@@H](O[C@H]7[C@H](O)[C@@H](O)[C@@H](O[C@H]8[C@H](O)[C@@H](O)[C@@H](O[C@H]1[C@H](O)[C@H]2O)O[C@@H]8CO)O[C@@H]7CO)O[C@@H]6CO)O[C@@H]5CO)O[C@@H]4CO)O[C@@H]3CO [β-Cyclodextrin, β-cyclodextrin]								100 % of initial	18 % of initial	0 % of initial	
OC[C@H]1O[C@@H]2O[C@H]3[C@H](O)[C@@H](O)[C@@H](O[C@H]4[C@H](O)[C@@H](O)[C@@H](O[C@H]5[C@H](O)[C@@H](O)[C@@H](O[C@H]6[C@H](O)[C@@H](O)[C@@H](O[C@H]7[C@H](O)[C@@H](O)[C@@H](O[C@H]8[C@H](O)[C@@H](O)[C@@H](O[C@H]9[C@H](O)[C@@H](O)[C@@H](O[C@H]1[C@H](O)[C@H]2O)O[C@@H]9CO)O[C@@H]8CO)O[C@@H]7CO)O[C@@H]6CO)O[C@@H]5CO)O[C@@H]4CO)O[C@@H]3CO [γ-Cyclodextrin, γ-cyclodextrin]								100 % of initial	13 % of initial	2 % of initial	
carboxymethyl-β-cyclodextrin	94 % of initial	11 % of initial	0 % of initial	further significantly modified	significantly modified	significantly modified	further significantly modified				
